According to patent publication US10093630B2, “Pyrazole compounds and methods of making and using same” (ABIDE THERAPEUTICS, INC., priority 2014, dated 2018):
Where two headings read alike, the source gives them in different places.

What was measured:
Assay in all cases: In vitro competitive activity-based protein profiling (gel-based, FP-Rh or HT-01 probe)
Assay type in all cases: biochemical
[1] = target: T1, ABHD6 (Mus musculus, UniProt Q8R2Y0); settings: for inhibition at 1 µM: 1 μM inhibitor, read-out: % Inhibition at 1 μM, C = ABHD6; for inhibition at 10 µM: 10 μM inhibitor, read-out: % Inhibition at 10 μM, C = ABHD6; for IC50: mouse brain membrane fraction or cell lysates, 30 min preincubation at 37° C., read-out: Mouse (IC50 value, nM) ABHD6
T1 construct: Proteomes (mouse brain membrane fraction or cell lysates); from tissue; host or cells: mouse brain membrane fraction (or cell lysates, not specified)
T1 sequence (Q8R2Y0 1-336): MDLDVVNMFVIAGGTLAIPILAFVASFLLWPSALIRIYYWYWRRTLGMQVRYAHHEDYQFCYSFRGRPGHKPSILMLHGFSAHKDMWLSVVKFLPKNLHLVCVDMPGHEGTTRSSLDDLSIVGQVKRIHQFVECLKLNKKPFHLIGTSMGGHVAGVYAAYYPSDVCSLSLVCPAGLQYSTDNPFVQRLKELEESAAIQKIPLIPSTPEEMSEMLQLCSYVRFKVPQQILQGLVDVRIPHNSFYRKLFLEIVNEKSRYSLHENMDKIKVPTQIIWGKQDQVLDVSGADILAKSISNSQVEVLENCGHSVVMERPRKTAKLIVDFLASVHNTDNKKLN
How it was run: (§1)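 Read-out: fluorescent band intensity on SDS-PAGE gels, reporting remaining serine hydrolase activity. Before that, proteome (mouse brain membranes or cell lysates, 1.0 mg/mL) saw a range of inhibitor concentrations for 30 min at 37° C, followed by 30 min probe labelling (FP-Rh or HT-01).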

[2] = target: T2, FAAH (Mus musculus, UniProt O08914); settings: for inhibition at 1 µM: 1 μM inhibitor, read-out: % Inhibition at 1 μM, B = FAAH; for inhibition at 10 µM: 10 μM inhibitor, read-out: % Inhibition at 10 μM, B = FAAH; for IC50: mouse brain membrane fraction or cell lysates, 30 min preincubation at 37° C., read-out: Mouse (IC50 value, nM) FAAH
T2 construct: Proteomes (mouse brain membrane fraction or cell lysates); from tissue; host or cells: mouse brain membrane fraction (or cell lysates, not specified)
T2 sequence (O08914 1-579): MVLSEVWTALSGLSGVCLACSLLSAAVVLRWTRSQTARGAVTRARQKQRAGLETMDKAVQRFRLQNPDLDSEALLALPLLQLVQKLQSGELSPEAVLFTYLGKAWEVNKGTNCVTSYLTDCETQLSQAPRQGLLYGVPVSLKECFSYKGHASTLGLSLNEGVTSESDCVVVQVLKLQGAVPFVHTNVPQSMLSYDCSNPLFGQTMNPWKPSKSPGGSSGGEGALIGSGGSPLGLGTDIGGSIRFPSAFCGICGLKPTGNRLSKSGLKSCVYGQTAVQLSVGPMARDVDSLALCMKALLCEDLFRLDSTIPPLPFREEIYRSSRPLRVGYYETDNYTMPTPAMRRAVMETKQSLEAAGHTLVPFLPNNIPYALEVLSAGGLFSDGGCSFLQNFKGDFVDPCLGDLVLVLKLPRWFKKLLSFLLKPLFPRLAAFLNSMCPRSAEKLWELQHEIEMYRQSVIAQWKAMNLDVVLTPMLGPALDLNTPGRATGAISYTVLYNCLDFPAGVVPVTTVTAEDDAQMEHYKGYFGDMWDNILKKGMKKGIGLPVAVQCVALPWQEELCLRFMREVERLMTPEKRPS
How it was run: as §1

[3] = target: T3, MAGL (Mus musculus, UniProt O35678); settings: for inhibition at 1 µM: 1 μM inhibitor; for inhibition at 10 µM: 10 μM inhibitor; for IC50: mouse brain membrane fraction or cell lysates, 30 min preincubation at 37° C., read-out: Mouse (IC50 value, nM) MAGL
T3 construct: Proteomes (mouse brain membrane fraction or cell lysates); from tissue; host or cells: mouse brain membrane fraction (or cell lysates, not specified)
T3 sequence (O35678 1-303): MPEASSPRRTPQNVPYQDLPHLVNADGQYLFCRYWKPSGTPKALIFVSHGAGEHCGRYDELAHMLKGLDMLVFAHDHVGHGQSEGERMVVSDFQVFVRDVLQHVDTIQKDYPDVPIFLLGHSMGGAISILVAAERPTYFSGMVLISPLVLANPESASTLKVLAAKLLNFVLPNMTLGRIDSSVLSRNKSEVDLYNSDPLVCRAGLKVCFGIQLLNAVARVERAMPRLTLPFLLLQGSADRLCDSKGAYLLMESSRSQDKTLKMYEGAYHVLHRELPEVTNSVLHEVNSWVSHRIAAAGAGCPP
How it was run: as §1

[4] = target: T4, PLA2G7 (Mus musculus, UniProt Q60963); settings: for inhibition at 1 µM: 1 μM inhibitor, read-out: % Inhibition at 1 μM, D = PLA2G7; for inhibition at 10 µM: 10 μM inhibitor, read-out: % Inhibition at 10 μM, D = PLA2G7; for IC50: mouse brain membrane fraction or cell lysates, 30 min preincubation at 37° C.
T4 construct: Proteomes (mouse brain membrane fraction or cell lysates); from tissue; host or cells: mouse brain membrane fraction (or cell lysates, not specified)
T4 sequence (Q60963 22-440): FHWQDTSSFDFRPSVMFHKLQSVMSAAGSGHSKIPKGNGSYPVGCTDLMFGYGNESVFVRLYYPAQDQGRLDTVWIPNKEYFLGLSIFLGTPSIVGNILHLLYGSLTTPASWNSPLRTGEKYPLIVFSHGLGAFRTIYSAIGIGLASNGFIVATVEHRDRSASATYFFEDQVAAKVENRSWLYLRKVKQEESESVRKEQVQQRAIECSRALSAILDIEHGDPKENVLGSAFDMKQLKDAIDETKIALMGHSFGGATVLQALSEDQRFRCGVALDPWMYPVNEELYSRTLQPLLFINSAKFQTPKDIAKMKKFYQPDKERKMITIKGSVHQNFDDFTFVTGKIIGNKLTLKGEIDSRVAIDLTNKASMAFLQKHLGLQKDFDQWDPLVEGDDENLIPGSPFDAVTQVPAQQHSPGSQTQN
How it was run: as §1

Structure (SMILES) | inhibition at 1 µM ([1]; gel-based competitive ABPP) | inhibition at 1 µM ([2]; gel-based competitive ABPP) | inhibition at 1 µM ([3]; gel-based competitive ABPP) | inhibition at 1 µM ([4]; gel-based competitive ABPP) | inhibition at 1 µM [1] | inhibition at 10 µM [1] | IC50 [1] | inhibition at 1 µM [2] | inhibition at 10 µM [2] | IC50 [2] | inhibition at 1 µM [3] | inhibition at 10 µM [3] | IC50 [3] | inhibition at 1 µM [4] | inhibition at 10 µM [4] | IC50 [4]
CCN(Cc1cccc(N2CCOCC2)c1)C(=O)n1cc(C)cn1 [Example 262, N-Ethyl-4-methyl-N-(3-morpholinobenzyl)-1H-pyrazole-1-carboxamide] | < 25% | < 25% | < 25% | < 25% | – | – | – | – | – | – | – | – | – | – | – | –
Cc1cnn(C(=O)N2CCCN(Cc3ccc(OCc4ccccc4)cc3)CC2)c1 [Example 302, (4-(4-(Benzyloxy)benzyl)-1,4-diazepan-1-yl)(4-methyl-1H-pyrazol-1-yl)methanone] | < 25% | < 25% | 25 to 75% | < 25% | – | – | – | – | – | – | – | – | – | – | – | –
Cc1cc(-c2ccccc2)ccc1CN1CCN(C(=O)n2cc(C#N)cn2)CC1 [Example 138, 1-(4-((3-methylbiphenyl-4-yl)methyl)piperazine-1-carbonyl)-1H-pyrazole-4-carbonitrile] | – | – | – | – | > 75% | > 75% | < 100 nM | > 75% | > 75% | < 100 nM | > 75% | > 75% | < 100 nM | > 75% | > 75% | < 100 nM
Cc1ccccc1CN1CCN(C(=O)n2cc(C(F)(F)F)cn2)CC1 [Example 277, (4-(2-Methylbenzyl)piperazin-1-yl)(4-(trifluoromethyl)-1H-pyrazol-1-yl)methanone] | > 75% | > 75% | > 75% | > 75% | – | – | – | – | – | – | – | – | – | – | – | –
CS(=O)(=O)N1CCCN(C(=O)n2cc(Cl)cn2)CC1 [Example 189, (4-Chloro-1H-pyrazol-1-yl)(4-(methylsulfonyl)-1,4-diazepan-1-yl)methanone] | – | – | – | – | > 75% | > 75% | – | > 75% | > 75% | – | < 25% | 25 to 75% | – | < 25% | < 25% | –
O=C(c1ccccc1)N1CCCN(C(=O)n2cc(Cl)cn2)CC1 [Example 192, (4-Benzoyl-1,4-diazepan-1-yl)(4-chloro-1H-pyrazol-1-yl)methanone] | – | – | – | – | 25 to 75% | > 75% | – | < 25% | > 75% | – | 25 to 75% | > 75% | – | < 25% | > 75% | –
CCN(Cc1ccc(C)cc1)C(=O)n1cc(Cl)cn1 [Example 133, 4-Chloro-N-ethyl-N-(4-methylbenzyl)-1H-pyrazole-1-carboxamide] | – | – | – | – | < 25% | > 75% | > 1000 nM | > 75% | > 75% | < 100 nM | < 25% | > 75% | > 1000 nM | < 25% | < 25% | –
O=C(N1CCN(Cc2cccc(C(F)(F)F)c2)CC1)n1cc(C(F)(F)F)cn1 [Example 272, (4-(Trifluoromethyl)-1H-pyrazol-1-yl)(4-(3-(trifluoromethyl)benzyl)piperazin-1-yl)methanone] | > 75% | > 75% | > 75% | > 75% | – | – | < 100 nM | – | – | < 100 nM | – | – | < 100 nM | – | – | 100 to 1000 nM
O=C(c1cnn(C(=O)N2CCN(Cc3cncnc3)CC2)c1)N1CCOCC1 [Example 56, (4-(Morpholine-4-carbonyl)-1H-pyrazol-1-yl)(4-(pyrimidin-5-ylmethyl)piperazin-1-yl)methanone] | – | – | – | – | < 25% | > 75% | – | – | < 25% | – | – | < 25% | – | < 25% | > 75% | –
CCN(Cc1ccccc1Cl)C(=O)n1cc(Cl)cn1 [Example 130, 4-Chloro-N-(2-chlorobenzyl)-N-ethyl-1H-pyrazole-1-carboxamide] | – | – | – | – | < 25% | – | – | < 25% | – | – | < 25% | – | – | < 25% | – | –
O=C(N1CCN(Cc2cccc(N3CCOCC3)c2)CC1)n1cc(C(F)(F)F)cn1 [Example 274, (4-(3-Morpholinobenzyl)piperazin-1-yl)(4-(trifluoromethyl)-1H-pyrazol-1-yl)methanone] | > 75% | > 75% | > 75% | > 75% | – | – | < 100 nM | – | – | 100 to 1000 nM | – | – | < 100 nM | – | – | < 100 nM
CN(Cc1cccc(-c2ccncc2)c1)C(=O)n1cc(C#N)cn1 [Example 221, 4-Cyano-N-methyl-N-(3-(pyridin-4-yl)benzyl)-1H-pyrazole-1-carboxamide] | – | – | – | – | > 75% | > 75% | – | > 75% | > 75% | – | > 75% | > 75% | – | 25 to 75% | < 25% | –
O=C(N1CCN(Cc2ccc(N3CCOCC3)cc2)CC1)n1cc(Cl)cn1 [Example 217, (4-Chloro-1H-pyrazol-1-yl)(4-(4-morpholinobenzyl)piperazin-1-yl)methanone] | – | – | – | – | > 75% | – | – | > 75% | – | – | > 75% | – | – | > 75% | – | –
O=C(N1CCN(Cc2ccc(-c3ccccc3)cc2)CC1)n1cccn1 [Example 22, (4-([1,1′-Biphenyl]-4-ylmethyl)piperazin-1-yl)(1H-pyrazol-1-yl)methanone] | – | – | – | – | < 25% | > 75% | – | < 25% | > 75% | – | > 75% | > 75% | – | < 25% | < 25% | –
COc1ccccc1N1CCN(C(=O)n2cc(C(F)(F)F)cn2)CC1 [Example 233, (4-(2-Methoxyphenyl)piperazin-1-yl)(4-(trifluoromethyl)-1H-pyrazol-1-yl)methanone] | – | – | – | – | > 75% | > 75% | < 100 nM | > 75% | > 75% | < 100 nM | > 75% | > 75% | < 100 nM | > 75% | > 75% | < 100 nM
